ChEMBL document CHEMBL1201862, “PubChem BioAssay data set” (2004)
Calls of active or inactive are those of the source. Rule as the data show it: actives have a measured IC50 and inactives only a lower limit.

Molecular target: Envelope glycoprotein gp160 (Human immunodeficiency virus 1, UniProt Q6QLK5)
Test: cell-free HIV fusion peptide-binding blockers – biochemical, uHTS, fluorescence dequenching, […] (AID 1986)

Envelope glycoprotein gp160, sequence (Q6QLK5 whole entry, the tested form may be a part): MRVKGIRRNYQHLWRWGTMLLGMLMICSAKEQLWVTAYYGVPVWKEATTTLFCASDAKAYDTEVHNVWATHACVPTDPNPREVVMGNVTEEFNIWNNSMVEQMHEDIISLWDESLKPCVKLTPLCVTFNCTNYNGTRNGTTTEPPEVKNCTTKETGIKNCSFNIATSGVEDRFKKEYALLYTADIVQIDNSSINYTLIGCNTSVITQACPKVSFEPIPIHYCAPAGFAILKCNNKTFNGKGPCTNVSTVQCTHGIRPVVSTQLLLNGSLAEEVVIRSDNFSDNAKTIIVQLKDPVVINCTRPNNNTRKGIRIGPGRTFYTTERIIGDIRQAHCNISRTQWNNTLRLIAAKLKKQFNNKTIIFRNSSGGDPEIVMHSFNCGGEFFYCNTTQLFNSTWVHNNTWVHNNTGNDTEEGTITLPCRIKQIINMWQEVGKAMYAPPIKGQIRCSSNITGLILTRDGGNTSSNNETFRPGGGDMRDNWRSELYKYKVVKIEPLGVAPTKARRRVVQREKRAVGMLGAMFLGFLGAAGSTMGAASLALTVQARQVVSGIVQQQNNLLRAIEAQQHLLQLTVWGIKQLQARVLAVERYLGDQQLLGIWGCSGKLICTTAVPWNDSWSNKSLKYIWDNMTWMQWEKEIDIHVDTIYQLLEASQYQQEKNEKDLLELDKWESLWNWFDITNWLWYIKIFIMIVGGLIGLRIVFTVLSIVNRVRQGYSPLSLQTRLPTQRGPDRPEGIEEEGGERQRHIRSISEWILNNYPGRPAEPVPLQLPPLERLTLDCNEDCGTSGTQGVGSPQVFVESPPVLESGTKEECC

Question: With O=c1[nH]c(=S)[nH]c2c1C(c1ccc(Br)cc1)c1c([nH]c(=S)[nH]c1=O)O2 as the compound, how does the IC50 read?
Answer: 11.3 µM (active)
